Experimental data reported in US20150094294A1, “COMPOUNDS AND METHODS FOR TREATING MALARIA” (Cellceutix Corporation, priority 2012, published 2015).
≈ marks a conversion by molar mass, not a printed value.

Experiments:
Type in all cases: cell-based
[1] = system: P. falciparum DD2 (chloroquine-resistant); assay: Anti-malarial activity, P. falciparum DD2 culture, 72 hour, DNA content by flow cytometry; settings: synchronized ring-stage parasites
Description: Numerous compounds were screened in cultures of the malaria parasite P. falciparum 3D7 (chloroquine-sensitive) and DD2 (chloroquine-resistant). The compounds were also screened for toxixcity against 3T3 cells, HepG2 cells, and in a hemolysis assay. In brief, P. falciparum parasites were cultured in RPMI 1640 (Invitrogen) supplemented with Albumax II (Invitrogen). For synchronization, schizont stage parasites were magnet purified using a SuperMACS™ II Cell Separation Unit (Miltenyi Biotech). For IC50 determinations, synchronized ring-stage parasites were plated at 0.5% parasitemia and 8% hematocrit in 96-well plates at a total volume of 50 μL. Serial dilutions of 2× concentration of the respective compound, ranging from 2.5 μM to 20 nM, were added to the wells to bring the total volume up to 100 μL and 4% hematocrit. Compounds were assayed for a 72 hour period, after which the cultures were fixed with a solution of 4% paraformaldehyde and 0.08% glutaraldhyde in PBS. The cells were then permeabilized with 0.25% Triton X-100, and SYTOX Green Nucleic Acid Stain (Invitrogen) in PBS was added to a final concentration of 5 μM. DNA content, as an indicator of parasitemia, was analyzed on an Accuri C6 Flow Cytometer with C-Sampler. IC50 curves were generated using GraphPad Prism (GraphPad Software).

[2] = system: P. falciparum 3D7 (chloroquine-sensitive); assay: Anti-malarial activity, P. falciparum 3D7 culture, 72 hour, DNA content by flow cytometry; settings: synchronized ring-stage parasites
Method in brief: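 Magnet-synchronized ring-stage parasites in RPMI 1640/Albumax II were plated at 0.5% parasitemia, 4% final hematocrit, with compound added as 2× dilutions (2.5 μM to 20 nM) for 72 h. Fixed, Triton-permeabilized cells were stained with SYTOX Green (5 μM final), and DNA content was measured by flow cytometry to derive IC50.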

[3] = in vitro
[4] = Cytotoxicity against HepG2 cells; settings: human, HepG2 cells; read-out: Cytotoxicity HepG2 EC50
[5] = Cytotoxicity against 3T3 cells; settings: mouse, 3T3 cells; read-out: Cytotoxicity 3T3 EC50
[6] = system: HepG2 cells; assay: Cytotoxicity against HepG2 cells
[7] = system: 3T3 cells; assay: Cytotoxicity against 3T3 cells
[8] = Plasmodium falciparum, 3D7, 72 h

| SMILES | IC50 [1] | IC50 [2] | EC50 [3] | IC50 ([1]; Plasmodium falciparum) | other results |
| --- | --- | --- | --- | --- | --- |
| CC(=O)Nc1cc(C(C)(C)C)cc(NC(=O)c2cccc(C(=O)Nc3cc(C(C)(C)C)cc(NC(C)=O)c3SCCN)c2)c1SCCN [Compound 108] | 0.419 µM | 0.306 µM | – | – | – |
| CC(C)(C)c1cc(NC(=O)c2cccc(C(=O)Nc3cc(C(C)(C)C)cc(NC(=O)C(N)Cc4ccccc4)c3SCCN)c2)c(SCCN)c(NC(=O)C(N)Cc2ccccc2)c1 (stereo not shown) [Compound 109] | 0.601 µM | 0.438 µM | – | – | – |
| CC(C)(C)c1cc(N)c(SCCN)c(NC(=O)c2cccc(C(=O)Nc3cc(C(C)(C)C)cc(N)c3SCCN)c2)c1 [Compound 110] | 0.74 µM | 0.563 µM | – | – | – |
| NCCOc1c(N)cc(C(F)(F)F)cc1NC(=O)c1cccc(C(=O)Nc2cc(C(F)(F)F)cc(N)c2OCCN)c1 [Compound 112] | 0.993 µM | 0.653 µM | – | – | – |
| CC(C)(C)c1cc(N)c(SCCCC(=N)N)c(NC(=O)c2cccc(C(=O)Nc3cc(C(C)(C)C)cc(N)c3SCCCC(=N)N)c2)c1 [Compound 113] | 0.611 µM | 0.668 µM | – | – | – |
| CN(CCCCC(=O)Nc1cc(C(C)(C)C)cc(NC(=O)c2cccc(C(=O)Nc3cc(C(C)(C)C)cc(NC(=O)CCCCN(C)c4ccccn4)c3SCCN)c2)c1SCCN)c1ccccn1 [Compound 118] | 1.15 µM | 0.74 µM | – | – | – |
| N=C(N)NCCCCC(=O)Nc1cc(C(F)(F)F)cc(NC(=O)c2cc(C(=O)Nc3cc(C(F)(F)F)cc(NC(=O)CCCCNC(=N)N)c3SCCN)[nH]n2)c1SCCN [Compound 119] | 0.688 µM | 0.87 µM | – | – | – |
| N=C(N)NCCSc1ccc(NC(=O)Nc2ccc(SCCN)c(C(F)(F)F)c2)cc1C(F)(F)F [Compound 130] | 0.976 µM | – | – | – | – |
| N=C(N)NCCCOc1cc(OCCCNC(=N)N)c(-c2ccc(C(F)(F)F)cc2)cc1-c1ccc(C(F)(F)F)cc1 [Compound 144] | – | – | 3 µg/mL (≈ 5.03 µM) | 0.247 µM | EC50 [4]: 90 µM; EC50 [5]: 27 µM |
| NCCCOc1c(-c2cccc(C(F)(F)F)c2)cc(-c2cccc(C(F)(F)F)c2)c(OCCCN)c1-c1cccc(C(F)(F)F)c1 [Compound 145] | – | – | 6 µg/mL (≈ 9.14 µM) | 0.658 µM | EC50 [4]: 28 µM; EC50 [5]: 14 µM |
| NC1CCC(N2CCc3ccc(NC(=O)c4cc(C(=O)Nc5ccc6c(c5)CCN(C5CCC(N)CC5)CC6)ncn4)cc3CC2)CC1 (stereo not shown) [Compound 148] | – | – | > 1000 µg/mL | 0.081 µM | EC50 [4]: > 1000 µM; EC50 [5]: > 1000 µM |
| N=C(N)NCCN1CCc2ccc(NC(=O)c3cc(C(=O)Nc4ccc5c(c4)CCN(CCNC(=N)N)CC5)ncn3)cc2CC1 [Compound 150] | – | – | 197 µg/mL (≈ 314 µM) | 0.53 µM | EC50 [4]: 157 µM; EC50 [5]: 168 µM |
| N=C(N)NCCCCN1CCc2ccc(NC(=O)c3cc(C(=O)Nc4ccc5c(c4)CCN(CCCCNC(=N)N)CC5)ncn3)cc2CC1 [Compound 151] | – | – | > 1000 µg/mL | 0.563 µM | EC50 [4]: 408 µM; EC50 [5]: 469 µM |
| FC(F)(F)c1cc(NC2CCNCC2)ccc1Oc1ccc(Oc2ccc(NC3CCCNC3)cc2C(F)(F)F)cc1 (stereo not shown) [Compound 165] | – | – | 16 µg/mL (≈ 26.9 µM) | 1.18 µM | IC50 [2, 8]: 0.904 µM |
| CC(=O)NCCSc1c(NC(=O)CCCCNC(=N)N)cc(Br)cc1NC(=O)c1cc(C(=O)Nc2cc(Br)cc(NC(=O)CCCCNC(=N)N)c2SCCNC(C)=O)ncn1 [Compound 169] | – | – | 210 µg/mL (≈ 205 µM) | 0.15 µM | IC50 [2, 8]: 0.317 µM |
| COC(=O)CCSc1c(NC(=O)CCCCNC(=N)N)cc(C(F)(F)F)cc1NC(=O)c1cc(C(=O)Nc2cc(C(F)(F)F)cc(NC(=O)CCCCNC(=N)N)c2SCCC(=O)OC)ncn1 [Compound 171] | – | – | – | 0.524 µM | IC50 [2, 8]: 0.893 µM |
| c1cc2sc3ccc(N4CCNCC4)cc3c2cc1N1CCNCC1 [Compound 291] | – | > 0.1 µM | – | – | EC50 [6]: 410 µM; EC50 [7]: 345 µM |
| CCn1c2ccc(N3CCNCC3)cc2c2cc(N3CCNCC3)ccc21 [Compound 293] | – | > 0.1 µM | – | – | EC50 [6]: > 1000 µM; EC50 [7]: 469 µM |
| NCCSc1c(NC(=O)c2cc(C(=O)Nc3cc(C(F)(F)F)cc(NC(=O)c4cccs4)c3SCCN)ncn2)cc(C(F)(F)F)cc1NC(=O)c1cccs1 [Compound 311] | – | > 0.1 µM | – | – | EC50 [6]: 923 µM; EC50 [7]: 923 µM |
